Data: paper PMC4236894, “Salicylanilide Diethyl Phosphates as Potential Inhibitors of Some Mycobacterial Enzymes” (The Scientific World Journal, 2014)
Like-named read-outs stand apart in the source and are kept apart here.

Legend:
[1] = target: T1, L-alanine dehydrogenase (MtAlaDH) (Mycobacterium tuberculosis, UniProt P9WQB1); assay: biochemical
T1 sequence (P9WQB1 1-371): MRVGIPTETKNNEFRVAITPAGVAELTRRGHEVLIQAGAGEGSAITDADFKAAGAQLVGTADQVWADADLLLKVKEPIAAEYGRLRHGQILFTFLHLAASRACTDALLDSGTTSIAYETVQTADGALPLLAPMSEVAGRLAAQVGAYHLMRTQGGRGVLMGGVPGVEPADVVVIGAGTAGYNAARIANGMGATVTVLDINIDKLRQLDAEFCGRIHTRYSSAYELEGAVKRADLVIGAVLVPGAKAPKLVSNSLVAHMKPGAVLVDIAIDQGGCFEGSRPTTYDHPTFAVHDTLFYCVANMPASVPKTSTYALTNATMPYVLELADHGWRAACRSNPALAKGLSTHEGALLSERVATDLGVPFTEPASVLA

[2] = target: T2, Lysine ε-aminotransferase (MtLAT) (Mycobacterium tuberculosis, UniProt P9WQ77); assay: biochemical
T2 sequence (P9WQ77 1-449): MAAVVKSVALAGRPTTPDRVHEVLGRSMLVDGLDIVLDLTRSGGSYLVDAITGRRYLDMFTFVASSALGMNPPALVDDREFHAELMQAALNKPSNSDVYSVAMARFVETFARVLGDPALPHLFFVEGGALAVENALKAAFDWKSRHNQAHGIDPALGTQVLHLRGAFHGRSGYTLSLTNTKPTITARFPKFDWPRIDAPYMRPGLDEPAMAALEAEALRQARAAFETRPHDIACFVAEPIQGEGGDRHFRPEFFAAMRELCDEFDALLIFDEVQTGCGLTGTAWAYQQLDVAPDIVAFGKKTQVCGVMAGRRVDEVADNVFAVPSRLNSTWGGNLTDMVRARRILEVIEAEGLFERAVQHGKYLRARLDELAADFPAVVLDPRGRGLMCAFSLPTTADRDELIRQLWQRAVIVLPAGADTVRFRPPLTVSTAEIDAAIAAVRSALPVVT

[3] = target: Pantothenate synthetase (MtPS) (Mycobacterium tuberculosis, UniProt P9WIL5); assay: Mycobacterial pantothenate synthetase (MtPS) screening; assay type: biochemical; conditions: 50 μM compound
Method: Sixty microliters of the PS reagent mix was added, including NADH, pantoic acid, β-alanine, ATP, phosphoenolpyruvate, MgCl2, myokinase, pyruvate kinase, and lactate dehydrogenase in buffer, to each well of a 96-well plate. The compounds were then added to plates in 1 μL volumes. The reaction was initiated by the addition of 39 μL PS diluted in buffer. The final concentrations in the reaction were 0.4 mM NADH, 5 mM pantoic acid, 10 mM MgCl2, 5 mM β-alanine, 10 mM ATP, 1 mM potassium phosphoenolpyruvate, and 18 units/mL each of chicken muscle myokinase, rabbit muscle pyruvate kinase, and rabbit muscle lactate dehydrogenase diluted in 100 mM HEPES buffer (pH 7.8), 1% DMSO, and 5 μg/mL PS in a final volume of 100 μL. The test plate was immediately transferred to a microplate reader, and absorbance was measured at 340 nm every 12 sec for 120 sec. […] The per cent inhibition was calculated using the following formula: 100 ∗ 1 − compound rate − background rate/full reaction rate − background rate.

[4] = target: T3, Chorismate mutase (MtCM) (Mycobacterium tuberculosis, UniProt P9WIB9); assay: biochemical
T3 sequence (P9WIB9 34-199): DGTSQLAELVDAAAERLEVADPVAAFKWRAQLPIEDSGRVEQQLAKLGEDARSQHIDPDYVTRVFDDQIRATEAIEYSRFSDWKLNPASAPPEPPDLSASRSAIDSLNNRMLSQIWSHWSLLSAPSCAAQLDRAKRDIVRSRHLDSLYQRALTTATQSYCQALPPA
Method: Reaction volumes of 0.4 mL of chorismate (typically 1 mM) in 50 mM Tris HCl (pH 7.5), 0.5 mM EDTA, 0.1 mg/mL bovine serum albumin, and 10 mM β-mercaptoethanol were incubated at 37°C for 5 min. […] The reaction was allowed to proceed at 37°C and was terminated after 1 to 5 min with 0.4 mL 1 M HCl. After a further incubation at 37°C for 10 min to convert prephenate, which is formed in the enzymatic reaction, to phenylpyruvate, 0.8 mL 2.5 M NaOH was added. The absorbance of the phenylpyruvate chromophore was read at 320 nm. We set up a blank with no enzyme for every reaction to account for the nonenzymatic conversion of chorismate to prephenate and added the enzyme after the addition of NaOH. […] A description of the methods can be found in the literature.

[5] = target: mycobacterial isocitrate lyase (ICL) (Mycobacterium tuberculosis, UniProt P9WKK7); assay: Isocitrate lyase assay (ICL1), glyoxylate phenyl hydrazone formation; assay type: biochemical; conditions: read-out: % ICL inhibition at 10 μM (±standard deviation)
Method: Isocitrate lyase activity was assayed according to the protocol reported by Dixon and Kornberg (glyoxylate phenyl hydrazone formation) at 10 µM of the investigated compounds. […] A description of the method can be found in the literature.

[6] = tested on: Mtb H37Rv strain; conditions: cited from earlier work

Chain of mycobacterial isocitrate lyase (ICL) (P9WKK7 whole entry): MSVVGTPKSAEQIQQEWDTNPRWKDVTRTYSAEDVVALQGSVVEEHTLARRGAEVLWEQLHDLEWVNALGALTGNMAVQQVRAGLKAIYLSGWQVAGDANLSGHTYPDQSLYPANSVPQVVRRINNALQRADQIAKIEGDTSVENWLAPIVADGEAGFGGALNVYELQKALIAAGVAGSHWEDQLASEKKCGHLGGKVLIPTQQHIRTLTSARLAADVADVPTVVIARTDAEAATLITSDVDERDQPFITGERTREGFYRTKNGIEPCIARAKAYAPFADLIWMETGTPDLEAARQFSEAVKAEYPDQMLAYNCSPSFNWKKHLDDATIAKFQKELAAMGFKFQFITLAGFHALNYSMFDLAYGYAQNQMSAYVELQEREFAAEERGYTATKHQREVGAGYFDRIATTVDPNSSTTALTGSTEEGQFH
Chain of Pantothenate synthetase (MtPS) (P9WIL5 whole entry, looked up): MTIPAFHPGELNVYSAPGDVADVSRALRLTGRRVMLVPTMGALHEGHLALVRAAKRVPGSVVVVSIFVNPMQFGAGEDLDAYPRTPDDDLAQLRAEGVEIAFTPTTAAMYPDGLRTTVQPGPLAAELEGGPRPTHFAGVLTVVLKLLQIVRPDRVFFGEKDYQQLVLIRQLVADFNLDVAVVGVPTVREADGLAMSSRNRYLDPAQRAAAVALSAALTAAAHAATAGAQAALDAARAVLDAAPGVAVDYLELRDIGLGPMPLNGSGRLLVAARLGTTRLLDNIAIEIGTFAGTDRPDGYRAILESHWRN

SMILES | % inhibition at 50 μM against L-MtAlaDH [1] [%] | IC50 [1] [µM] | % inhibition at 50 μM against MtLAT [2] [%] | % inhibition at 50 μM against MtCM [4] [%] | inhibition at 10 µM ([5]; 10 μM compound) [%] | further results
CCOP(=O)(OCC)Oc1cc(Cl)ccc1C(=O)Nc1cccc(Cl)c1 [1j] | 12.30 | > 50 | 29.30 | 54.56 |  | % inhibition at 50 μM against MtPS [3]: 3.64%
CCOP(=O)(OCC)Oc1cc(Cl)ccc1C(=O)Nc1ccc(C(F)(F)F)cc1 [1r] | 47.28 | > 50 | 23.18 | 50.05 |  | 
CCOP(=O)(OCC)Oc1cc(Cl)ccc1C(=O)Nc1cccc(Cl)c1 [1s, 5-Chloro-2-[(3-chlorophenyl)carbamoyl]phenyl diethyl phosphate] |  | 4.96 |  |  |  | inhibition at 10 µM [5]: 6 ± 0.83%; inhibition at 50 µM ([1]; read-out: % inhibition at 50 μM against L-MtAlaDH, 50 μM compound): > 70%; inhibition at 50 µM ([2]; read-out: % inhibition at 50 μM against MtLAT, 50 μM compound): > 50%; MICs against actively growing Mtb H37Rv strain [6]: 4 to 8 µM; inhibition at 50 µM ([3]; read-out: % inhibition at 50 μM against MtPS): 11.2%; inhibition at 50 µM ([4]; read-out: % inhibition at 50 μM against MtCM, 50 μM compound): > 60%
O=C(O)CC[N+](=O)[O-] [3-Nitropropionic acid, 3-nitropropionic acid] |  |  |  |  | 25 ± 4.1 | 
NNC(=O)c1ccncc1 [Isoniazid] |  |  |  |  | 0 | 
